Measurements published in ChEMBL document CHEMBL1154786, “Analgesic, anticonvulsant and anti-inflammatory activities of some synthesized benzodiazipine, triazolopyrimidine and bis-imide derivatives” (Eur J Med Chem, 2009).
Calls of active or inactive are those of the source. The rule behind the calls is not given here.

What was measured:
[1] = Acute toxicity in rat; assay type: organism-based; details: in vivo
Rattus norvegicus [2] = assay: Antiinflammatory activity in albino rat assessed as inhibition of increase in plasma PGE2 level at 50 mg/kg, po by EIA; assay type: functional
Rattus norvegicus [3] = assay: Antiinflammatory activity in albino rat assessed as protection against carrageenan-induced paw edema at 50 mg/kg, po administered 1 hr before carrageenan challenge measured after 4 hrs; assay type: functional
Rattus norvegicus [4] = assay: Antiinflammatory activity in albino rat assessed as protection against carrageenan-induced paw edema at 25 mg/kg, po administered 1 hr before carrageenan challenge measured after 4 hrs; assay type: functional
Rattus norvegicus [5] = assay: Antiinflammatory activity in albino rat assessed as inhibition of increase in plasma PGE2 level at 25 mg/kg, po by EIA; assay type: functional
Mus musculus [6] = assay: Anticonvulsant activity in Webster mouse assessed as protection against yohimbine-HCl-induced clonic seizure at 5 mg/kg, ip administered 30 mins before yohimbine-HCl challenge; assay type: functional
Mus musculus [7] = assay: Analgesic activity in Webster mouse assessed as normal reaction time at 5 mg/kg, sc after 10-120 mins by hot plate assay relative to valdecoxib; assay type: functional; details: route subcutaneous
Mus musculus [8] = assay: Anticonvulsant activity in Webster mouse assessed as protection against yohimbine-HCl-induced clonic seizure at 5 mg/kg, ip administered 30 mins before yohimbine-HCl challenge relative to carbamazepine; assay type: functional

SMILES	LD50 [1]	inhibition in vivo at 50 mg/kg (Rattus norvegicus [2])	Activity (Rattus norvegicus [3])	Activity (Rattus norvegicus [4])	inhibition in vivo at 25 mg/kg (Rattus norvegicus [5])	ED50 (Mus musculus [6]; route intraperitoneal)	Activity (Mus musculus [7])	Activity (Mus musculus [8]; route intraperitoneal)	ED50 (Mus musculus [6])	Activity (Mus musculus [8])
CC1=CC(c2ccccc2)NC(NN)N1 (stereo not given)	1.88 mg/kg									
CC1=CC2=NC(=S)NC(=O)C2C(c2ccccc2)C1 (stereo not given)	1.88 mg/kg	82.8%	85.24%	74.38%	72.1%	15 mg/kg	130%	2.04		
CC1=CC(c2ccccc2)Nc2n[nH]c(=S)n21 (stereo not given)	1.8 mg/kg	66.8%	42.38%						inactive	inactive
CC1=CC(c2ccccc2)Nc2nnc(C)n21 (stereo not given)	1.97 mg/kg									
CC1=Cc2c(c(=O)[nH]n2-c2ccccc2)C(c2ccccc2)C1 (stereo not given)	1.86 mg/kg	67%	64.8%	63.9%	54.9%		60%		inactive	inactive
CC1=Cc2[nH]c(=S)nc(C)c2C(c2ccccc2)C1 (stereo not given)	1.87 mg/kg						60%			
CCOC(=O)C1C(=O)C=C(C)CC1c1ccccc1 (stereo not given)	1.74 mg/kg	54.5%	60.26%			50 mg/kg	60%	0.68		
CC1=CC(c2ccccc2)NC(=S)N1CN1CCOCC1 (stereo not given)	1.69 mg/kg		98.41%	85.84%	90.3%	13 mg/kg	60%	2.3		
CC1=CC(c2ccccc2)NC(=S)N1 (stereo not given)	1.8 mg/kg	93.5%	96.1%	84.52%	78.4%	32 mg/kg	130%	1		
C[C@]12C=CC(=O)C=C1CC[C@@H]1[C@@H]2[C@@H](O)C[C@@]2(C)[C@H]1CC[C@]2(O)C(=O)CO [PREDNISOLONE]	1.62 mg/kg	91%	92%	81%	77%					
CC1=Cc2c(c(C)nn2-c2ccccc2)C(c2ccccc2)C1 (stereo not given)	1.92 mg/kg									
CC1=CC(c2ccccc2)N=C(NN2C(=O)c3ccc4c5c(ccc(c35)C2=O)C(=O)N(NC2=NC(c3ccccc3)C=C(C)N2)C4=O)N1 (stereo not given)	1.78 mg/kg	65%	51.6%	48.5%	58.8%	15 mg/kg	60%	1.8		
CC(=O)C1C(=O)C=C(C)CC1c1ccccc1 (stereo not given)	1.72 mg/kg									
CC1=CC(c2ccccc2)N=C(NN2C(=O)c3cccc4cccc(c34)C2=O)N1 (stereo not given)	1.85 mg/kg	95.6%	93.15%	87.8%	88.7%		60%		inactive	inactive
CC1=CC(c2ccccc2)N=C(Nn2c(=O)c3cc4c(=O)n(NC5=NC(c6ccccc6)C=C(C)N5)c(=O)c4cc3c2=O)N1 (stereo not given)	1.68 mg/kg									
CC1=CC(c2ccccc2)N=C(n2cc(C)c(C)n2)N1 (stereo not given)	1.79 mg/kg									
CC1=CC(c2ccccc2)Nc2ncnn21 (stereo not given)	1.75 mg/kg	94.6%	96.05%	85.25%	80.7%	10 mg/kg	60%	2.51		
NC(=O)N1c2ccccc2C=Cc2ccccc21 [CARBAMAZEPINE]						28 mg/kg				
